In US8492614B2, “Plant biochemical systems and uses thereof” (The Board of Trustees of the University of Illinois, priority 2007, dated 2013):
Entries after “also recorded” stand apart in the source; their conditions may differ. Blank lines part the entries; values can stand above or below the molecule they belong to.

Columns and labels:
Lhcb expression = assay: Lhcb RNA levels by northern analysis after ABA treatment of etiolated seedlings; assay type: in vivo, Arabidopsis; conditions: 800 nM ABA
Method: Six-d-old dark-grown Arabidopsis seedlings col wild type or insertion mutants were grown on 0.8% agarose plates containing only 0.5× Murashige and Skoog media as described in Lapik and Kaufman (2003). The growth media contains no additional sugar, hormones, vitamins or other nutrients. Seedlings were irradiated with a single pulse (10 s) of low fluence BL (total fluence of 10^2 μmol m^−2); or a single pulse (100 s) of saturation fluence BL (total fluence of 10^4 μmol m^−2); or no light (DK), and/or, treated with 800 nM ABA dissolved in ethanol, or ethanol alone, placed back in the dark for two h after which total RNA was extracted and used for northern blot analysis (Lapik and Kaufman, 2003). Lhcb and rDNA probes used, quantitation methods, and means of normalization to rRNA levels are described elsewhere (Marrs and Kaufman, (1991) Planta 183: 327-333). […] All induction data is correct for loading through the quantitation of the rRNA as described (Warpeha and Kaufman, (1990) Planta 182: 553-558). […] Real time quantitative PCR (qPCR) was used to measure the level of Lhcb RNA induction in response to a single pulse of low fluence blue light as a confirmation of the Northern blot analysis methods. […] The qPCR-derived information (4 different RNA sets of Dark and BL-treated) data was analyzed using (ΔΔCoT). […]

[1] = test system: etiolated Arabidopsis seedlings; assay: Cotyledon natural fluorescence by deconvoluting microscopy; assay type: in vivo; conditions: hormone applied to etiolated cotyledons; 24 h; 1.0 μM ABA, 500 μM JA
Method: Fluorescent images were obtained of living unfixed seedlings 24 h post BL or ABA treatment as described in the “Plant Growth and Preparation of Tissue” section. Optical sectioning was achieved by using a Zeiss Axiovert 200M microscope (Carl Zeiss), equipped with ApoTome (collected by grid projection), and a digital camera and the 4#,6-diamino-phenylindole, fluorescein isothiocyanate, and Texas Red filter sets (Chroma). Photographs of whole cotyledon fluorescence were snapped on the same microscope set up, minus the apoTome setting.
The preparation of whole cell extracts from the areal portions of the seedlings for the quantification of Phe levels and PD1 activity levels is described in (Warpeha et al., Plant Physiol. 143:1590-1600, 2007). Phe concentration is determined by HPLC. […] Natural fluorescence of the cotyledons is visualized and quantitated by deconvoluting microscopy using a “DAPI-Long Pass” filter which allows excitation between 300-380 nm and emits with a cutoff […] 400 nm.
If the Phe produced by activated PD1 is necessary for the ability of young etiolated seedlings to respond to UV-B, salt or heat stress, then it is possible that the addition of exogenous Phe (effectively cross feeding Phe) could restore a wild type response to GCR1, GPA1 and PD1 mutants when assayed for cotyledon fluorescence and the ability to survive sub-lethal levels of UV-C. To determine if exogenous Phe can restore wild type responses to GCR1, GPA, and PD1 mutants, 1 mM Phe is added to the top agar during planting and the experiment described above specifically testing for cotyledon surface fluorescence and the ability to survive sub-lethal levels of UV-C is repeated. Serine and […] are used as negative controls in these assays.
The experiments described above for examining if GCR1, GPA1 and PD1 are required for young etiolated seedlings to respond to UV-B, salt or heat stress are performed but with ABA, ACC, JA and SA substituting for UV-B, salt and heat. For these experiments, ABA is tested at 1.0 μM dissolved in ethanol and applied as an atomized mist. […]

PD1 [2] = assay: Cytosolic PD1 activity after ABA treatment of etiolated seedlings; assay type: in vivo, Arabidopsis; conditions: ABA treatment of etiolated wild type
Description: Activated GPA1 has a specific physical interaction with PD1 that results in a significant increase in PD1 activity. PD1 is the only member of the PD family that is expressed in etiolated Arabidopsis. […] The increase in PD1 activity in response to BL or ABA treatment also requires GCR1. BL Irradiation or ABA treatment of pd1, gcr1 and gpa1 T-DNA insertion mutants result in none of these events described for wt. We conclude that GCR1, GPA1 and PD1 form a signaling chain that is responsible for ABA and BL induced synthesis of phenylpyruvate, phenylalanine and a series of UV absorbing products from the phenylpropanoid pathway. In etiolated seedlings phenylalanine is synthesized via a phenylpyruvate intermediate, much like in bacteria and fungi, and not via an arogenate pathway (Warpeha et al., Plant Physiol. 140:844-855).
All plants are returned to complete darkness for two hours after which cytosolic extracts are prepared and assayed as described infra.

[3] = Stability of absorbance spectra of cell free extracts with or without phenylalanine; assay type: physicochemical, Arabidopsis; conditions: cell free extracts in buffer; 24 h, room temperature or +4° C., lab lighting
Method: Cell free extracts were left at room temperature for 24 h after a 10^5 μmol m^−2 treatment of UV (366 nm) in lab lighting (which is fluorescent).

PD1 [4] = target: T1, PD1 (Arabidopsis thaliana, UniProt Q9ZUY3); assay: In vitro GPA1-PD1 activation assay; assay type: biochemical; conditions: compared with inactive (GDP or GDPβS) or no GPA1
T1 construct: Full-length GPA1 and PD1 templates were amplified, prepared, and purified by the methods described; made in house; host or cells: cell-free: TNT T7 coupled wheat germ extract system (Promega)
T1 sequence (Q9ZUY3 25-424): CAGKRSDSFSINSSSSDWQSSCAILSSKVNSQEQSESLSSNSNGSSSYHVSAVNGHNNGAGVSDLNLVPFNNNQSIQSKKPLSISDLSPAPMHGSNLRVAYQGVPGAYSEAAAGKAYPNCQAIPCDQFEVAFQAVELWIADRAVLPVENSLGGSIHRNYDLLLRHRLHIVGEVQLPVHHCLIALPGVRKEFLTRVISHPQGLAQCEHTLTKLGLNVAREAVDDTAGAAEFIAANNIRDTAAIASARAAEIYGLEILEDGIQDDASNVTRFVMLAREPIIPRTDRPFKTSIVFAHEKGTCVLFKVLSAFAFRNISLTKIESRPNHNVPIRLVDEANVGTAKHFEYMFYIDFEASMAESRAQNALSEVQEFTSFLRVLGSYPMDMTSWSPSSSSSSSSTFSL
T1 sequence (P18064 1-383 partner): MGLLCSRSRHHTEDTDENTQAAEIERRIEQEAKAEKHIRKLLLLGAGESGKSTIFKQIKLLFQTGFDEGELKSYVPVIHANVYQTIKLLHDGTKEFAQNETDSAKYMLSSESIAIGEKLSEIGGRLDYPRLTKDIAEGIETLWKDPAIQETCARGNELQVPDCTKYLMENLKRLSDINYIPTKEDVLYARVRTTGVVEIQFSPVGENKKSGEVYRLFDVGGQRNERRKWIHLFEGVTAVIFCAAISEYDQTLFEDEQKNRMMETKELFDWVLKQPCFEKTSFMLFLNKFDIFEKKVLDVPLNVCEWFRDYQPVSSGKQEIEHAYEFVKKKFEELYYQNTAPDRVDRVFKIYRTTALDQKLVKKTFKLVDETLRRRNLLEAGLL
Method: Full-length GPA1 and PD1 templates were amplified, prepared, and purified by the methods described (Lapik and Kaufman, 2003). GPA1 and PD1 proteins were individually produced by coupled in vitro transcription/translation using TNT T7 coupled wheat germ extract system (Promega). In vitro association assays were conducted by mixing approximately equimolar concentrations of GPA1 with PD1 in PD assay buffer at 4° C. with modifications for plants: 50 mM K2PO4 pH 7.5, 1.0 mM dithiothreitol, […], and 0.5% protease inhibitor cocktail for plants. Activated GPA1 was achieved by preincubation with […] (a nonhydrolyzable GTP analog). Inactivated GPA1 was achieved by preincubation with GDP, or GDPγS (a nonhydrolyzable GDP analog). […] Reaction mixtures were stopped at time zero and various time points thereafter by adding 0.5 volume of 1N NaOH.
The increase in activity occurs quickly as approximately 90% of the measured increase in activity occurs within the first 10 min of incubation.

Molecule: CC1=CC(=O)CC(C)(C)[C@@]1(O)/C=C/C(C)=C\C(=O)O [ABA, abscisic acid]
Lhcb RNA accumulation in mutant seedlings (Lhcb expression; gcr1, gpa1, prn1, nf-y-b9, nf-y-a5 mutants): fails to induce Lhcb RNA accumulation
Lhcb expression in wild type seedlings (Lhcb expression; six-d-old etiolated wild type): induces Lhcb expression
accumulation of UV- and BL-absorbing fluorescent material in cotyledons [1]: phenotype identical to that observed in wild-type seedlings for BL irradiation; also recorded: response pattern is identical to that of UV-B, salt and heat
cytosolic PD1 activity (PD1 [2]): increase in cytosolic PD1 activity

Molecule: CC/C=C\C[C@H]1C(=O)CC[C@@H]1CC(=O)O [JA, jasmonic acid, reference compound]
accumulation of UV- and BL-absorbing fluorescent material in cotyledons [1]: response pattern is identical to that of UV-B, salt and heat

Molecule: CSCC[C@H](N)C(=O)O [L-methionine, reference compound]
stability of the extract solution (absorbance spectra, pigments) over time [3]: did not increase stability of the solution

increase in PD1 activity (PD1 [4]): 2 fold
B1: activated GPA1: Arabidopsis G-protein Gα subunit made by in vitro transcription/translation, activated with GTPγS (protein, UniProt P18064 2-383, looked up)
Guanine nucleotide-binding …: GLLCSRSRHHTEDTDENTQAAEIERRIEQEAKAEKHIRKLLLLGAGESGKSTIFKQIKLLFQTGFDEGELKSYVPVIHANVYQTIKLLHDGTKEFAQNETDSAKYMLSSESIAIGEKLSEIGGRLDYPRLTKDIAEGIETLWKDPAIQETCARGNELQVPDCTKYLMENLKRLSDINYIPTKEDVLYARVRTTGVVEIQFSPVGENKKSGEVYRLFDVGGQRNERRKWIHLFEGVTAVIFCAAISEYDQTLFEDEQKNRMMETKELFDWVLKQPCFEKTSFMLFLNKFDIFEKKVLDVPLNVCEWFRDYQPVSSGKQEIEHAYEFVKKKFEELYYQNTAPDRVDRVFKIYRTTALDQKLVKKTFKLVDETLRRRNLLEAGLL
modifications: GTPγS-bound
